# Assay results from patent US20240398783A1, “Compounds and Pharmaceutical Compositions Comprising Inhibitors of Amyloid Peptide Interactions with Glycosaminoglycans, Methods of Treatment and Use Thereof” (Gismo Therapeutics, Inc., priority 2021, published 2024).
# pIC50: −log10 of the molar value. Counter-ions that a name gives are not always drawn. Like-named read-outs stand apart in the source and are kept apart here.
# Tests used:
# [1] = molecular target: Alpha-Synuclein Protofibril binding to purified human brain membranes (Homo sapiens, UniProt P37840); test: Inhibition of protofibrillar alpha-synuclein binding to purified human brain cell membranes (ELISA); settings: alpha-synuclein protofibrils
# Protocol: (§1) Purified human brain cell membranes were prepared by differential centrifugation as follows. Five grams of frozen human brain postmortem tissue (obtained from University of Kentucky Alzheimer's Disease Center Tissue Bank) was homogenized in 50 ml HEPES-Buffered sucrose (0.32M sucrose, 4 mM HEPES pH7.4, protease inhibitors) with a motor driven glass-teflon homogenizer. After removing nuclear and cell debris by centrifugation of homogenates at 1,000×g for 10 min at 4 degree Celsius, post-nuclear supernatant was centrifuged at 100,000×g for 30 minutes to yield the crude membrane pellet. Crude membrane pellet was re-suspended in 0.32M sucrose, then centrifuged again at 100,000×g for 30 minutes to yield washed membrane pellet. Membrane pellet was resuspended in sterile PBS (pH7.4), quickly frozen, and kept in aliquots at −80 degrees Celsius. This preparation contains human brain cell membranes. Protein concentration was measured with BCA protein assay kit (Pierce Cat. No. 23227). Purified brain membranes were diluted to 0.01 mg/ml in PBS (pH 7.4) and then added to a 96 well polystyrene ELISA plate (NUNC Cat. No. 449824; 100 μl per well). Plates were incubated Over Night (ON) at 4 degrees Celsius. Following the incubation, the plate was washed consecutively, by immersion, with de-ionized water and PBS (pH 7.4). The ELISA plate was then blocked with nonfat milk (2%, 200 μl per well) for 2 hours at Room Temperature (RT). Following blocking, the plate was washed with de-ionized water then PBS (pH 7.4). GBAPs were dissolved and diluted in PBS (pH 6.5, supplemented with 0.1% BSA) at desired concentrations, added to the ELISA plates coated with brain membranes (100 μl per well) and incubated for 2 hours at RT with gentle shaking. Following incubation, the plate was washed with de-ionized water and three times with PBS (pH 6.5) plus Tween. Bound GBAP was detected by a monoclonal antibody specific for that GBAP, followed by incubation with secondary antibody conjugated to horseradish peroxidase (HRP). Antibody was diluted in PBS (pH6.5 supplemented with 1% BSA). Following each incubation with antibody, the plate was washed with de-ionized water and three times with PBS (pH6.5) wash buffer containing 0.1% Tween. The peroxidase substrate chromogen, TMB (Dako Cat. No. S1599) was added (100 μl per well) to the ELISA plate and incubated at room temperature. After 5 minutes ELISA Stop Solution (hydrochloric acid 1N, sulfuric acid 3N) was added (100 μl per well) to stop the peroxidase catalyzed colorimetric reaction. The Optical Density of the samples was measured at 450 nm using an ELISA plate reader (BioTek Synergy H1). Following color development, the % inhibition compared to control was determined. IC-50s were calculated using GraphPad Prism software.
# The assay was performed as described in Example 49, with the following modifications. Following to coating the plates with human brain membranes, plates were washed as described. The compounds were dissolved in DMSO at 10 mM final concentration and further diluted prior to assay. DMSO concentration in the screening well was up to 2%. Individual compounds were co-incubated with alpha-synuclein on plates coated with brain membranes. Protofibrillar Alpha-synuclein were prepared as described in Example 45. Protofibrillar Alpha-synuclein diluted in PBS (pH 6.5, supplemented with BSA, 0.1%) was added to the ELISA plate (100 μl per well) and incubated for 2 hours at RT with gentle shaking. Following the incubation, the plate was washed with de-ionized water and three times with PBS (pH 6.5) plus Tween. Bound alpha-synuclein was detected by Anti-Alpha-synuclein Monoclonal Antibody 211 (Santa Cruz Cat. No. sc-12767), followed by secondary anti-IgG antibody conjugated to HRP (R&D System, Cat. No. HAF007). Following to color development with TMB, as described in Example 49, the Optical Density of the samples was measured at 450 nm using an ELISA plate reader. […]
# [2] = molecular target: TDP-43 binding to purified human brain membranes (Homo sapiens, UniProt Q13148); test: Inhibition of TDP-43 binding to purified human brain cell membranes (ELISA); settings: TDP-43, purified human brain membranes
# Protocol: as §1
# The assay was performed as described in Example 49, with the following modifications. Following to coating the plates with purified human brain cell membranes, plates were washed as described. The compounds were dissolved in DMSO at 10 mM final concentration and further diluted prior to assay. DMSO concentration in the screening well was up to 2%. Individual compounds were co-incubated with TDP-43 on plates coated with brain membranes. TDP43 from R&D System (Cat. No. AP-190) was quickly frozen and kept in aliquots at −80 degrees Celsius. TDP-43 dissolved in PBS (pH 6.5, supplemented with BSA, 0.1%) was added to the ELISA plate (100 μl per well) and incubated for 2 hours at RT with gentle shaking. Following the incubation, the plate was washed with de-ionized water and three times with PBS (pH 6.5) plus Tween. Bound TDP-43 was detected by Anti-TDP43 Monoclonal Antibody (R&D System Cat. No. MAB7778), followed by secondary anti-IgG antibody conjugated to HRP (R&D System, Cat. No. HAF007). Following to color development with TMB, as described in Example 49, the Optical Density of the samples was measured at 450 nm using an ELISA plate reader. […]
# [3] = Alpha-Synuclein/Membrane Activity (IC-50)
# [4] = TDP43/Membrane Activity (IC-50)
# Chain of TDP-43 binding to purified human brain membranes (Q13148 whole entry): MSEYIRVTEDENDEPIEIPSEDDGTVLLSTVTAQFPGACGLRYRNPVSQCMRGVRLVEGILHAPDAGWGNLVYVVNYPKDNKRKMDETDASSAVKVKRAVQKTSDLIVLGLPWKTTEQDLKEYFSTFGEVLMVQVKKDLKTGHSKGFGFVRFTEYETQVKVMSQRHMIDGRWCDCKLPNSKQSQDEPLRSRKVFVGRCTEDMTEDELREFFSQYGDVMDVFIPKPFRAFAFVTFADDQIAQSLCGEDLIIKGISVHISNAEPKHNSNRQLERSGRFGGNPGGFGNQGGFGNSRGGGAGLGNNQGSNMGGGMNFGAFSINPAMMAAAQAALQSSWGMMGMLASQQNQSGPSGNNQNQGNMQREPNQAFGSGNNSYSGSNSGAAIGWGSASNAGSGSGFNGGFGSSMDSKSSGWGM
Structure (SMILES),"pIC50 [1, 3]","pIC50 [2, 4]",pIC50 ([1]; read-out: Alpha-Synuclein/Membrane Activity (IC-50)),pIC50 ([2]; read-out: TDP43/Membrane Activity (IC-50))
"CC(=NNc1ccnc2cc(Cl)ccc12)c1ccc(-n2ccnc2)cc1 [Compound 36, 4-(2-(1-(4-(1H-imidazol-1-yl)phenyl)ethylidene)hydrazineyl)-7-chloroquinoline phosphate]",5.02,4.31,–,–
"C/C(=N\Nc1ncnc2cc(Cl)ccc12)c1ccc(-n2cc(C)nc2C)nc1 [Compound 18, (E)-7-chloro-4-(2-(1-(6-(2,4-dimethyl-1H-imidazol-1-yl)pyridin-3-yl)ethylidene)hydrazineyl)quinazoline phosphoric acid salt]",–,–,5.43,5.03
"Clc1ccc2c(N/N=C/c3ccc(-n4cccn4)cc3)ccnc2c1 [Compound 3, (E)-4-((E)-(4-(1H-pyrazol-1-yl)benzylidene)hydrazono)-7-chloro-1,4-dihydroquinoline]",5.13,5.18,–,–
"Cc1ncn(-c2ccc(/C=N\Nc3ncnc4cc(Cl)ccc34)cn2)c1C [Compound 15, 7-chloro-4-(2-((6-(4,5-dimethyl-1H-imidazol-1-yl)pyridin-3-yl)methylene)hydrazineyl)quinazoline hydrochloride]",5.51,5.52,–,–
